Source: ChEMBL document CHEMBL5727994, “Heterocyclic glutaminase inhibitors” (2020)

test: Modified Recombinant Enzyme Assay: Glutaminase reaction buffer was prepared [50 mM Tris-HCl pH 8.8, 150 mM K2HPO4, […] EDTA, 0.1 mg/ml BSA (Calbiochem no. 2960), 1 mM DTT, 2 mM NADP+(Sigma Aldrich no. N5755), and 0.01% TX-100] and used to make 3×-enzyme-containing solution, 3×-substrate-containing solution, and 3×-inhibitor-containing solution (see below) Inhibitor-containing solution was made

Row | Compound | IC50
1 | O=C(Cc1ccccn1)Nc1nnc(CCCCc2ccc(NC(=O)C(O)c3ccccc3)nn2)s1 (stereo not drawn) | 190 nM
2 | COc1ccc(CC(=O)Nc2ccc(CCCCc3nnc(NC(=O)Cc4ccccn4)s3)nn2)cc1OC(F)(F)F | 24 nM
3 | CC(C)(C)OC(=O)Nc1cccc(CC(=O)Nc2nnc(CCCCc3ccc(NC(=O)Cc4cccc(OC(F)(F)F)c4)nn3)s2)n1 | 140 nM
4 | O=C(Cc1ccc(F)c(OC(F)(F)F)c1)Nc1ccc(CCCCc2nnc(NC(=O)Cc3ccccn3)s2)nn1 | 33 nM
5 | O=C(Cc1ccc(O)c(OC(F)(F)F)c1)Nc1ccc(CCCCc2nnc(NC(=O)Cc3ccccn3)s2)nn1 | 42 nM
6 | O=C(Cc1cc(OC(F)(F)F)ccc1O)Nc1ccc(CCCCc2nnc(NC(=O)Cc3ccccn3)s2)nn1 | 26 nM
7 | COc1ccc(OC(F)(F)F)cc1CC(=O)Nc1ccc(CCCCc2nnc(NC(=O)Cc3ccccn3)s2)nn1 | 34 nM
8 | Nc1cccc(CC(=O)Nc2nnc(CCCCc3ccc(NC(=O)Cc4cccc(OC(F)(F)F)c4)nn3)s2)n1 | 50 nM

These reach a lower IC50. Values come first.

Row | IC50 | Compound
9 | 20 nM | O=C(Cc1cc(OC(F)(F)F)ccc1F)Nc1ccc(CCCCc2nnc(NC(=O)Cc3ccccn3)s2)nn1
10 | 16 nM | O=C(Cc1ccc(Cl)c(OC(F)(F)F)c1)Nc1ccc(CCCCc2nnc(NC(=O)Cc3ccccn3)s2)nn1
11 | 16 nM | COc1cc(CC(=O)Nc2ccc(CCCCc3nnc(NC(=O)Cc4ccccn4)s3)nn2)cc(OC(F)(F)F)c1
12 | 13 nM | O=C(Cc1cc(O)cc(OC(F)(F)F)c1)Nc1ccc(CCCCc2nnc(NC(=O)Cc3ccccn3)s2)nn1
13 | 12 nM | Cc1cccc(CC(=O)Nc2nnc(CCCCc3ccc(NC(=O)Cc4cccc(OC(F)(F)F)c4)nn3)s2)n1
